Source: US20150306096A1, “8'-HYDROXY-DIHYDROERGOTAMINE COMPOUNDS AND COMPOSITIONS” (MAP Pharmaceuticals, Inc., priority 2012, published 2015)

Legend:
Somatostatin (SST1~SST5) = assay: GTPγS assay; type: biochemical, human; details: Somatostatin receptors
Method: (§1) Additional receptor agonist/agonist activity assessments were performed using the 8′-OH DHE test compound. Table 12 contains a summary of the cell lines (CHO-K1/HEK293 transfected with relevant human receptor) and the assays performed to detect any agonist or antagonist activity.
Reagents used were the following: Assay buffer (20 mM HEPES, pH 7.4; 100 mM NaCl; 10 mg/mL saponin; 30 mM MgCl2); Membranes (recombinant human receptor membrane extracts were thawed on ice and diluted in assay buffer to give […] (10 μgμL) and kept on ice); GDP (diluted in assay buffer to give 30 μM solution (3 μM final concentration); beads (PVT-WGA (Amersham, RPNQ001), diluted in assay buffer at 25 mg/mL (0.25 mg/10 μL)); GTPγ^35S (Perkin Elmer, NEG030X), diluted in assay buffer to give 0.1 nM (final concentration); and ligand (agonist/antagonist diluted in assay buffer).
Membranes were mixed with GDP (1:1) and incubated for at least 15 minutes on ice. In parallel, GTPγ^35S was mixed with the beads (1:1) just before starting the reaction. […] The plates were then centrifuged for 10 minutes at 2,000 rpm and incubated at RT for 1 hour and counted for 1 min/well with a Perkin Elmer TopCount reader.

[1] = test system: Cholecystokinin (CCK1/CCK2); assay: Aequorin assay; type: cell-based, human; details: CCK receptors
Method: as §1
(§2) Aequorin assays were conducted to monitor activity for 8′-OH DHE against the receptors indicated in Table 12 above (except for mGlu3 and mGlu5). CHO-K1 cells co-expressing mitochondrial apoaequorin and the recombinant human receptor of interest were grown to mid-log phase in culture media without antibiotics and then detached with PBS-EDTA, centrifuged and resuspended in assay buffer (DMEMHAM's F12 with HEPES, without phenol red+0.1% BSA, protease free) at a concentration of 1×10^6 cell/mL. Cells were incubated at RT for at least 4 hours with coelenterazine h. Reference agonistant/agonist was tested to evaluate the performance of the assay and to determine EC50/IC50.
(§3) 50 μL of the cell suspension was mixed with 50 μL of test or reference agonist in a 96-well plate. The resulting emission of light was recorded using Hamamatsu Functional Drug Screening System 6000 (FDSS 6000) luminometer. For antagonist testing, 100 μL of the reference agonist at its EC80 was injected on the mix of cells and test compound, following an incubation of 15 minutes after the first injection. The resulting emission of light was recorded using the FDSS 6000 luminometer. To standardize the emission of recorded light (and determine of the ‘100% signal’) across plates and across different experiments, some wells contained 100 μM digitonin or a saturating concentration of ATP (20 μM).

[2] = test system: VIP/PACAP (PAC1/VPAC1/VPAC2); assay: Aequorin assay; type: cell-based, human; details: VIP/PACAP receptors
Method: as §1, §2, §3

Neurokinin (NK1/NK2/NK3) = assay: Aequorin assay; type: cell-based, human; details: Neurokinin receptors
Method: as §1, §2, §3

Orexin (OX1/OX2) = assay: Aequorin assay; type: cell-based, human; details: Orexin receptors
Method: as §1, §2, §3

[3] = test system: Purinergic (P2X1/P2X2/P2X3/P2X4/P2X7); assay: Purinergic receptor QPatch patch clamp (agonist/antagonist); type: cell-based, human; details: P2X receptors, 30 and 100 μM
Method: Purinergic receptor studies were conducted to monitor activity of 8′-OH DHE against the P2X1, P2X2, P2X3, P2X4 and P2X7 receptors. Human recombinant purinergic receptor-expressing HEK293 cells were used, and receptor activity was evaluated at RT using QPatch HT® (Sophion Bioscience A/S, Denmark) automatic parallel patch clamp system. The test 8′-OH DHE compound was evaluated in both agonist and antagonist modes at 30 and 100 μM. Each concentration was tested in triplicate.

[4] = subcutaneous, 1.5 mM; cited from earlier work

With `CN1C[C@H](C(=O)N[C@]2(C)O[C@@]3(O)[C@@H]4CCC(O)N4C(=O)[C@H](Cc4ccccc4)N3C2=O)C[C@@H]2c3cccc4[nH]cc(c34)C[C@H]21` (stereo partly shown) [8′-OH DHE, 8′-Hydroxy-Dihydroergotamine] the “Activity (Agonism: EC50; Antagonism: IC50)” value (from here on “Activity”) (Somatostatin (SST1~SST5)) was “Inactive”, the “Activity” value [1] was “Inactive” and the “Activity” value [2] was “Inactive”. The “Activity” value (Neurokinin (NK1/NK2/NK3)) was “Inactive”, the “Activity” value (Orexin (OX1/OX2)) was “Inactive” and the “Activity” value [3] was “Inactive”.
In the case of `CN1C[C@H](C(=O)N[C@]2(C)O[C@@]3(O)[C@@H]4CCCN4C(=O)[C@H](Cc4ccccc4)N3C2=O)C[C@@H]2c3cccc4[nH]cc(c34)C[C@H]21` [DHE, Dihydroergotamine], the “nausea, share of treated patients” value [4] is given as about 16%.
